From ChEMBL document CHEMBL1128276, “Quinazoline antifolate thymidylate synthase inhibitors: replacement of glutamic acid in the C2-methyl series” (J Med Chem, 1995)

Key:
L1210 [1] = assay: Inhibition of L1210 cell growth; type: functional, cell-based; settings: Mus musculus
L1210 (1565) [2] = assay: Concentration to inhibit cell growth was measured on L1210:1565 cell line; type: functional, cell-based; settings: Mus musculus
L1210 (1565) [3] = assay: Relative resistance was measured in L1210:1565 cell line; type: functional, cell-based; settings: Mus musculus
Thymidylate synthase [4] = target: T1, Thymidylate synthase (Mus musculus, UniProt P07607); assay: Ability to inhibit Thymidylate synthase purified from mouse L1210 leukemia cells that overproduce thymidylate synthase (TS)
L1210 [5] = assay: Ability to inhibit cell growth was measured on L1210 cells(horse serum); type: functional, cell-based; settings: Mus musculus
Thymidylate synthase [6] = target: T1, Thymidylate synthase; assay: Inhibition of thymidylate synthase purified from mouse L1210 leukemia cells that overproduce thymidylate synthase (TS); type: cell-free

T1 sequence (P07607 whole entry): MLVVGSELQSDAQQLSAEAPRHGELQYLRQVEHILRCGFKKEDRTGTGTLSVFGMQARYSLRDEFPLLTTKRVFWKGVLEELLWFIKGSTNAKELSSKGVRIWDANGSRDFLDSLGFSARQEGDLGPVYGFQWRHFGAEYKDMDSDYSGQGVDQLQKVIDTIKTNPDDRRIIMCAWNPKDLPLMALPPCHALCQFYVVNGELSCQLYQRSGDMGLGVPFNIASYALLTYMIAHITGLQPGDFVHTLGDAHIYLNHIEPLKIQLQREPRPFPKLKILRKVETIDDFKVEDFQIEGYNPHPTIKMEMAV

IC50 (L1210 [1]) [µM] | IC50 (L1210 (1565) [2]) [µM] | IC50 (Thymidylate synthase [4]) [µM] | IC50 (L1210 [5]) [µM] | IC50 (Thymidylate synthase [6]) [µM] | SMILES | Relative resistance (L1210 (1565) [3]) [dimensionless ratio]
0.23 | 0.09 | 0.048 |  |  | C#CCN(Cc1cc2c(O)nc(C)nc2cc1C)c1ccc(C(=O)NCc2cccc(C#N)c2)c(F)c1 | 0.38
 |  |  | 6 | 1.42 | C#CCN(Cc1ccc2nc(C)nc(O)c2c1)c1ccc(C(=O)NCc2ccco2)cc1 | 
8.6 |  |  |  | 2.26 | C#CCN(Cc1ccc2nc(C)nc(O)c2c1)c1ccc(C(=O)NCCC)cc1 | 
 | 7.5 |  | 1.8 | 0.32 | C#CCN(Cc1ccc2nc(C)nc(O)c2c1)c1ccc(C(=O)NCc2ccccc2[N+](=O)[O-])cc1 | 4.2
2.2 | 40 |  |  |  | C#CCN(Cc1ccc2nc(C)nc(O)c2c1)c1ccc(C(=O)N[C@H](CCC(N)=O)C(=O)O)cc1 | 
0.96 | 23 |  |  | 0.058 | C#CCN(Cc1ccc2nc(C)nc(O)c2c1)c1ccc(C(=O)N[C@@H](C(=O)O)C(C)C)cc1 | 23
0.66 | 0.5 | 0.1 |  |  | C#CCN(Cc1cc2c(O)nc(C)nc2cc1C)c1ccc(C(=O)NCc2nccs2)c(F)c1 | 0.76
0.21 | 0.18 |  |  | 0.044 | C#CCN(Cc1cc2c(O)nc(C)nc2cc1C)c1ccc(C(=O)NCc2cccc([N+](=O)[O-])c2)c(F)c1 | 0.86
 |  |  | 70 | 7.7 | C#CCN(Cc1ccc2nc(C)nc(O)c2c1)c1ccc(C(=O)NCc2ccc(Cl)cc2)cc1 | 
8 | 4.8 | 1.72 |  |  | C#CCN(Cc1ccc2nc(C)nc(O)c2c1)c1ccc(C(=O)NCc2cscn2)cc1 | 0.6
1.7 | 1.6 | 0.77 |  |  | C#CCN(Cc1ccc2nc(C)nc(O)c2c1)c1ccc(C(=O)NCc2nc(C)cs2)cc1 | 0.91
0.08 | 5.92 |  |  | 0.009 | C#CCN(Cc1cc2c(O)nc(C)nc2cc1C)c1ccc(C(=O)N[C@H](CCC(=O)O)C(=O)O)c(F)c1 | 74
41 |  |  |  | 0.17 | C#CCN(Cc1ccc2nc(C)nc(O)c2c1)c1ccc(C(=O)N[C@H](Cc2ccccc2)C(=O)O)cc1 | 
7.2 |  |  |  | 22.9 | C#CCN(Cc1ccc2nc(C)nc(O)c2c1)c1ccc(C(=O)NCC)cc1 | 
0.88 | 5.28 | 0.007 |  |  | C#CCN(Cc1cc2c(O)nc(C)nc2cc1C)c1ccc(C(=O)N[C@@H](C(=O)O)C(C)(C)C)c(F)c1 | 6
25 |  |  |  | 4.2 | C#CCN(Cc1ccc2nc(C)nc(O)c2c1)c1ccc(C(=O)NC)cc1 | 
> 100 |  |  |  | 0.52 | C#CCN(Cc1ccc2nc(C)nc(O)c2c1)c1ccc(C(=O)NCC(=O)O)cc1 | 
5.5 |  |  |  | 1.38 | C#CCN(Cc1ccc2nc(C)nc(O)c2c1)c1ccc(C(=O)NCc2ccoc2)cc1 | 
0.62 | 0.52 | 0.114 |  |  | C#CCN(Cc1cc2c(O)nc(C)nc2cc1C)c1ccc(C(=O)NCc2ccccn2)c(F)c1 | 0.84
9 | 13 |  |  | 0.024 | C#CCN(Cc1ccc2nc(C)nc(O)c2c1)c1ccc(C(=O)N[C@@H](C(=O)O)c2cccc([N+](=O)[O-])c2)cc1 | 1.4
2 | 14 |  |  | 0.058 | C#CCN(Cc1ccc2nc(C)nc(O)c2c1)c1ccc(C(=O)N[C@@H](C(=O)O)C(C)(C)C)cc1 | 7
0.09 | 8.2 |  |  |  | C#CCN(Cc1ccc2nc(C)nc(O)c2c1)c1ccc(C(=O)N[C@H](CCC(=O)O)C(=O)O)cc1 | 
 |  |  | 2.2 | 0.32 | C#CCN(Cc1ccc2nc(C)nc(O)c2c1)c1ccc(C(=O)NCc2ccc([N+](=O)[O-])cc2)cc1 | 

Second part, the molecule before the results:

SMILES | IC50 (L1210 [1]) [µM] | IC50 (L1210 (1565) [2]) [µM] | IC50 (Thymidylate synthase [4]) [µM] | IC50 (L1210 [5]) [µM] | IC50 (Thymidylate synthase [6]) [µM] | Relative resistance (L1210 (1565) [3]) [dimensionless ratio]
C#CCN(Cc1ccc2nc(C)nc(O)c2c1)c1ccc(C(=O)N[C@@H](C(=O)O)c2ccc(F)cc2)cc1 | 74 |  | 0.089 |  |  | 
C#CCN(Cc1cc2c(O)nc(C)nc2cc1C)c1ccc(C(=O)NCc2cncs2)c(F)c1 | 0.62 | 0.24 | 0.11 |  |  | 0.39
C#CCN(Cc1ccc2nc(C)nc(O)c2c1)c1ccc(C(=O)N[C@H](C)C(=O)O)cc1 | 25 |  |  |  | 0.15 | 
C#CCN(Cc1ccc2nc(C)nc(O)c2c1)c1ccc(C(=O)N[C@@H](C(=O)O)c2ccccc2)cc1 | 15 | 30 |  |  | 0.034 | 2
C#CCN(Cc1ccc2nc(C)nc(O)c2c1)c1ccc(C(=O)NCc2nccs2)cc1 | 6 | 5 | 0.76 |  |  | 0.83
C#CCN(Cc1ccc2nc(C)nc(O)c2c1)c1ccc(C(=O)NCc2cccc(C#N)c2)cc1 |  | 0.5 |  | 1.5 | 0.28 | 0.33
C#CCN(Cc1ccc2nc(C)nc(O)c2c1)c1ccc(C(=O)N[C@H](Cc2ccc([N+](=O)[O-])cc2)C(=O)O)cc1 | > 20 |  |  |  | 0.042 | 
C#CCN(Cc1ccc2nc(C)nc(O)c2c1)c1ccc(C(=O)Nc2ccccc2)cc1 | 11 |  |  |  | 1.82 | 
C#CCN(Cc1cc2c(O)nc(C)nc2cc1C)c1ccc(C(=O)N[C@@H](C(=O)O)c2cccc([N+](=O)[O-])c2)c(F)c1 | 2.45 | 1.25 |  |  | 0.0044 | 0.51
C#CCN(Cc1ccc2nc(C)nc(O)c2c1)c1ccc(C(=O)NCc2ccsc2)cc1 | 5.5 |  |  |  | 1.46 | 
C#CCN(Cc1ccc2nc(C)nc(O)c2c1)c1ccc(C(=O)NCc2cccc([N+](=O)[O-])c2)cc1 |  | 0.4 |  | 1.2 | 0.11 | 0.37
C#CCN(Cc1ccc2nc(C)nc(O)c2c1)c1ccc(C(=O)NCc2ccccn2)cc1 |  | 5 |  | 3.9 | 0.45 | 1.28
C#CCN(Cc1ccc2nc(C)nc(O)c2c1)c1ccc(C(=O)NCc2cncs2)cc1 | 1.1 | 0.4 |  |  | 0.86 | 0.36
C#CCN(Cc1ccc2nc(C)nc(O)c2c1)c1ccc(C(=O)N[C@@H](C(=O)O)c2cccc(O)c2)cc1 | 90 |  | 0.16 |  |  | 
C#CCN(Cc1cc2c(O)nc(C)nc2cc1C)c1ccc(C(=O)N[C@@H](C(=O)O)C(C)C)c(F)c1 | 1.7 | 2.91 | 0.006 |  |  | 1.71
C#CCN(Cc1ccc2nc(C)nc(O)c2c1)c1ccc(C(=O)N[C@H](CCC)C(=O)O)cc1 | 2.5 | 34 |  |  |  | 
C#CCN(Cc1ccc2nc(C)nc(O)c2c1)c1ccc(C(=O)NCc2ccccc2)cc1 | 4 |  |  |  | 0.72 | 
C#CCN(Cc1ccc2nc(C)nc(O)c2c1)c1ccc(C(=O)NCc2cccc(C(=O)O)c2)cc1 |  |  |  | 85 | 0.27 | 
